One test concerns the target Coagulation factor X (Homo sapiens, UniProt P00742). Put plainly: In vitro inhibition of Coagulation factor X.
Another test concerns the target Serine protease 1 (Homo sapiens, UniProt P07477). The experiment in a line: In vitro inhibition of trypsin.
The next test deals with Prothrombin (Homo sapiens, UniProt P00734).

Some results are limits rather than exact numbers.

Chain of Serine protease 1 (P07477 whole entry): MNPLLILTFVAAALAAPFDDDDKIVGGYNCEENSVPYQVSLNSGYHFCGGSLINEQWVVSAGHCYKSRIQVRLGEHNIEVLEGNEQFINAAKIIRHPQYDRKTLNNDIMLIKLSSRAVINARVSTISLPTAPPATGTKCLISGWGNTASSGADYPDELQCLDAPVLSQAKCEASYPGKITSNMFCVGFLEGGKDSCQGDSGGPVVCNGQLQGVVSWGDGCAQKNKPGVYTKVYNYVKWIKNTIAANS
Chain of Coagulation factor X (P00742 41-179 limits assumed): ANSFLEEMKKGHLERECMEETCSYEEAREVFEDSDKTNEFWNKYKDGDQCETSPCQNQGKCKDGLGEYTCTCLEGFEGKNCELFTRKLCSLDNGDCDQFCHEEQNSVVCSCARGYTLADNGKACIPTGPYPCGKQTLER
Chain of Coagulation factor X (P00742 235-488 limits assumed): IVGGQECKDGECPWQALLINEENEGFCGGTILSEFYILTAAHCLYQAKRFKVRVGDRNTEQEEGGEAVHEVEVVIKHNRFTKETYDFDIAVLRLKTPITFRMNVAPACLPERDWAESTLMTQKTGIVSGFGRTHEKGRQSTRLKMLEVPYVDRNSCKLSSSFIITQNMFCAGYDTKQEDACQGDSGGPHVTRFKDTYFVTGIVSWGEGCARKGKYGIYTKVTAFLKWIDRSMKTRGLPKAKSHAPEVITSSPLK
Description for Prothrombin: In vitro inhibition of human alpha-thrombin

The Ki is a measure of affinity in units of concentration, obtained from inhibition or displacement. Low readings indicate tighter binding, high ones weaker binding. `N/C(=N\O)c1ccc(CN(NS(=O)(=O)c2ccc3ccccc3c2)C(=O)N2CCCCC2)cc1`: the inhibitory constant (Ki) at Coagulation factor X was greater than 75 µM; at Serine protease 1, greater than 68 µM.
`N/C(=N\O)c1ccc(CN(NS(=O)(=O)c2ccc(-c3ccccc3)cc2)C(=O)N2CCCCCC2)cc1`: the Ki at Prothrombin was 1600 nM; on Serine protease 1, greater than 400 µM.
Consider `CC1CCN(C(=O)N(Cc2ccc(C(=N)NO)cc2)NS(=O)(=O)c2ccc3ccccc3c2)CC1`, for which the results for the Ki on Coagulation factor X, at Prothrombin and at Serine protease 1 were greater than 75 µM, 770 nM and greater than 68 µM, respectively.
Taken in the same sequence, the figures for `N/C(=N\O)c1ccc(CN(NS(=O)(=O)c2ccc3ccccc3c2)C(=O)N2CCCCCC2)cc1` were greater than 75 µM, 210 nM and 13 µM.
Taken in the same sequence, the figures for `COc1ccc2cc(S(=O)(=O)NN(Cc3ccc(C(=N)NO)cc3)C(=O)N3CCC(C)CC3)ccc2c1` were greater than 75 µM, 380 nM and greater than 68 µM.
With `N=C(N)c1ccc(CN(NS(=O)(=O)c2ccc3ccccc3c2)C(=O)N2CCCCCC2)cc1`, the Ki at Coagulation factor X amounted to 69 µM; at Serine protease 1, 10 µM.
As for `N=C(N)c1ccc(CN(NS(=O)(=O)c2ccc3ccccc3c2)C(=O)N2CCCCC2)cc1`, the inhibitory constant (Ki) was 66 µM at Coagulation factor X, 95 nM on Prothrombin and 13 µM on Serine protease 1.
Taken in the same sequence, the figures for `CC1CCCCN1C(=O)N(Cc1ccc(C(=N)N)cc1)NS(=O)(=O)c1ccc2ccccc2c1` (stereo unspecified) were 53 µM, 85 nM and 26 µM.
On to `CC1CCN(C(=O)N(Cc2cccc(C(=N)NO)c2)NS(=O)(=O)c2ccc3ccccc3c2)CC1`, for which the Ki at Coagulation factor X is greater than 75 µM; at Serine protease 1, greater than 68 µM.
Taken in the same sequence, the figures for `N=C(N)c1cccc(CN(NS(=O)(=O)c2ccc3ccccc3c2)C(=O)N2CCCCCC2)c1` were 3.9 µM and 0.14 µM.
The like results for `COc1ccc2cc(S(=O)(=O)NN(Cc3cccc(C(=N)N)c3)C(=O)N3CCCCCC3)ccc2c1` were, in that order, 3 µM and 0.053 µM.
Taken in the same sequence, the figures for `N/C(=N\O)c1cccc(CN(NS(=O)(=O)c2ccc3ccccc3c2)C(=O)N2CCCCCC2)c1` were greater than 75 µM and 32 µM.
As for `CC1CCCCN1C(=O)N(Cc1cccc(C(=N)NO)c1)NS(=O)(=O)c1ccc2ccccc2c1` (stereo unspecified), the Ki came to 5.4 µM on Coagulation factor X and 67 µM on Serine protease 1.
Regarding `CC1CCCCN1C(=O)N(Cc1ccc(C(=N)NO)cc1)NS(=O)(=O)c1ccc2ccccc2c1` (stereo unspecified), the results for the Ki on Coagulation factor X, on Prothrombin and at Serine protease 1 were greater than 75 µM, 430 nM and 45 µM, respectively.
As to `COc1ccc2cc(S(=O)(=O)NN(Cc3cccc(C(=N)NO)c3)C(=O)N3CCCCCC3)ccc2c1`, the results for the Ki at Coagulation factor X and at Serine protease 1 were 103 µM and 17 µM, respectively.
`COc1ccc2cc(S(=O)(=O)NN(Cc3cccc(C(=N)NO)c3)C(=O)N3CCCCC3C)ccc2c1` (stereo unspecified): the Ki turned out to be 111 µM at Coagulation factor X, 4200 nM at Prothrombin and 47 µM at Serine protease 1.
The like results for `COc1ccc2cc(S(=O)(=O)NN(Cc3ccc(C(=N)N)cc3)C(=O)N3CCC(C)CC3)ccc2c1` were, in that order, greater than 75 µM, 45 nM and 18 µM.
For the compound `N=C(N)c1ccc(CN(NS(=O)(=O)c2ccc(-c3ccccc3)cc2)C(=O)N2CCCCCC2)cc1`, the Ki on Prothrombin amounted to 150 nM; on Serine protease 1, 23 µM.
For `CC1CCN(C(=O)N(Cc2cccc(C(=N)N)c2)NS(=O)(=O)c2ccc3ccccc3c2)CC1`, the Ki at Coagulation factor X is 5.3 µM; on Serine protease 1 it was 0.11 µM.

Values taken from ChEMBL document CHEMBL1137966, “Thrombin inhibitors built on an azaphenylalanine scaffold” (Bioorg Med Chem Lett, 2004).
